Data reported in the kinase profiling compilation of Christmann-Franck et al. (2016).

Experiments:
Test in all cases: KINOMEscan competition binding
Conditions in all cases: compound 10.0 µM
RPS6KA4 KD2 (human) = RPS6KA4 KD2 (human) (UniProt O75676)
SIK1 (human) = SIK1 (human) (UniProt P57059)
MYLK2 (human) = MYLK2 (human) (UniProt Q9H1R3)
RPS6KA1 KD2 (human) = RPS6KA1 KD2 (human) (UniProt Q15418)
GAK (human) = GAK (human) (UniProt O14976)
CSF1R (human) = CSF1R (human) (UniProt P07333)
SRC (human) = SRC (human) (UniProt P12931)
MAPKAPK2 (human) = MAPKAPK2 (human) (UniProt P49137)
KIT (human) = KIT (human) (UniProt P10721)
MAP2K1 (human) = MAP2K1 (human) (UniProt Q02750)
STK24 (human) = STK24 (human) (UniProt Q9Y6E0)
YES1 (human) = YES1 (human) (UniProt P07947)
PAK1 (human) = PAK1 (human) (UniProt Q13153)
EIF2AK2 (human) = EIF2AK2 (human) (UniProt P19525)
CSNK2A2 (human) = CSNK2A2 (human) (UniProt P19784)
CaMK1 (human) = CaMK1 (human) (UniProt Q14012)
MERTK (human) = MERTK (human) (UniProt Q12866)
GSK3B (human) = GSK3B (human) (UniProt P49841)
MAP3K10 (human) = MAP3K10 (human) (UniProt Q02779)
STK17A (human) = STK17A (human) (UniProt Q9UEE5)
MAP4K3 (human) = MAP4K3 (human) (UniProt Q8IVH8)
AURKA (human) = AURKA (human) (UniProt O14965)
STK17B (human) = STK17B (human) (UniProt O94768)
[1] = tested on: ABL1 (human), P00519 [Y253F]
ANKK1 (human) = ANKK1 (human) (UniProt Q8NFD2)
SYK (human) = SYK (human) (UniProt P43405)
ULK3 (human) = ULK3 (human) (UniProt Q6PHR2)
PIK3CG (human) = PIK3CG (human) (UniProt P48736)
FGFR4 (human) = FGFR4 (human) (UniProt P22455)
CHEK2 (human) = CHEK2 (human) (UniProt O96017)

STK17A (human), sequence (Q9UEE5 whole entry, looked up): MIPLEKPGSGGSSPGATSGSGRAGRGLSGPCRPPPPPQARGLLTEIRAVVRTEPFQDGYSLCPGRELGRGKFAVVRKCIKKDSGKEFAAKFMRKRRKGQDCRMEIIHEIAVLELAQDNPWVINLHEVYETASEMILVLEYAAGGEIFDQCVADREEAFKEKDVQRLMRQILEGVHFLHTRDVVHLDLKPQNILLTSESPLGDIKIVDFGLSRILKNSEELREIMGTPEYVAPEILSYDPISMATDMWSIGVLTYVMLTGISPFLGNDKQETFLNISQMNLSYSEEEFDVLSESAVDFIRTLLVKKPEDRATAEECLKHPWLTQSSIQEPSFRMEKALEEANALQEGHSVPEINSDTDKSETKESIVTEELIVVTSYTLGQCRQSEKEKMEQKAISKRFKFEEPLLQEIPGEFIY
SIK1 (human), sequence (P57059 whole entry, looked up): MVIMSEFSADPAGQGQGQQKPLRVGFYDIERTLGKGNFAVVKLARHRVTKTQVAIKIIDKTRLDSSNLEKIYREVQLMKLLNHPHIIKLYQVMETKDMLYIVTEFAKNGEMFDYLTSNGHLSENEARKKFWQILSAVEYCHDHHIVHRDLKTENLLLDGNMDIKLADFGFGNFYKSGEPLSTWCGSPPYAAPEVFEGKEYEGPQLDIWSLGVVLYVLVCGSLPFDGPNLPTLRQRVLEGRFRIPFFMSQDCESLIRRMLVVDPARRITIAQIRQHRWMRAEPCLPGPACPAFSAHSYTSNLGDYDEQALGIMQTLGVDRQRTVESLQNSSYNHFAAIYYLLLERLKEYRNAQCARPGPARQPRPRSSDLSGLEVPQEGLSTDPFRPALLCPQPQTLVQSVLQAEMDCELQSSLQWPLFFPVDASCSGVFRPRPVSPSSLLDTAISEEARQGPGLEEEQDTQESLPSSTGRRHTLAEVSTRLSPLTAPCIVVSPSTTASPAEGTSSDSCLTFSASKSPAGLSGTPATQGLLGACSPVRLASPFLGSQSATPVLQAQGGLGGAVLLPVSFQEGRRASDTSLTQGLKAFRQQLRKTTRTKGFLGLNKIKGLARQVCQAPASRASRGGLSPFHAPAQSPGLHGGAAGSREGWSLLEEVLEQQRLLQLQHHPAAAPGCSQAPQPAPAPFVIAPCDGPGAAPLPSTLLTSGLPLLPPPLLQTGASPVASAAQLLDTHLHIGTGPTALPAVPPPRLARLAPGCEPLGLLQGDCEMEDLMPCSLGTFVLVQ
GAK (human), sequence (O14976 whole entry, looked up): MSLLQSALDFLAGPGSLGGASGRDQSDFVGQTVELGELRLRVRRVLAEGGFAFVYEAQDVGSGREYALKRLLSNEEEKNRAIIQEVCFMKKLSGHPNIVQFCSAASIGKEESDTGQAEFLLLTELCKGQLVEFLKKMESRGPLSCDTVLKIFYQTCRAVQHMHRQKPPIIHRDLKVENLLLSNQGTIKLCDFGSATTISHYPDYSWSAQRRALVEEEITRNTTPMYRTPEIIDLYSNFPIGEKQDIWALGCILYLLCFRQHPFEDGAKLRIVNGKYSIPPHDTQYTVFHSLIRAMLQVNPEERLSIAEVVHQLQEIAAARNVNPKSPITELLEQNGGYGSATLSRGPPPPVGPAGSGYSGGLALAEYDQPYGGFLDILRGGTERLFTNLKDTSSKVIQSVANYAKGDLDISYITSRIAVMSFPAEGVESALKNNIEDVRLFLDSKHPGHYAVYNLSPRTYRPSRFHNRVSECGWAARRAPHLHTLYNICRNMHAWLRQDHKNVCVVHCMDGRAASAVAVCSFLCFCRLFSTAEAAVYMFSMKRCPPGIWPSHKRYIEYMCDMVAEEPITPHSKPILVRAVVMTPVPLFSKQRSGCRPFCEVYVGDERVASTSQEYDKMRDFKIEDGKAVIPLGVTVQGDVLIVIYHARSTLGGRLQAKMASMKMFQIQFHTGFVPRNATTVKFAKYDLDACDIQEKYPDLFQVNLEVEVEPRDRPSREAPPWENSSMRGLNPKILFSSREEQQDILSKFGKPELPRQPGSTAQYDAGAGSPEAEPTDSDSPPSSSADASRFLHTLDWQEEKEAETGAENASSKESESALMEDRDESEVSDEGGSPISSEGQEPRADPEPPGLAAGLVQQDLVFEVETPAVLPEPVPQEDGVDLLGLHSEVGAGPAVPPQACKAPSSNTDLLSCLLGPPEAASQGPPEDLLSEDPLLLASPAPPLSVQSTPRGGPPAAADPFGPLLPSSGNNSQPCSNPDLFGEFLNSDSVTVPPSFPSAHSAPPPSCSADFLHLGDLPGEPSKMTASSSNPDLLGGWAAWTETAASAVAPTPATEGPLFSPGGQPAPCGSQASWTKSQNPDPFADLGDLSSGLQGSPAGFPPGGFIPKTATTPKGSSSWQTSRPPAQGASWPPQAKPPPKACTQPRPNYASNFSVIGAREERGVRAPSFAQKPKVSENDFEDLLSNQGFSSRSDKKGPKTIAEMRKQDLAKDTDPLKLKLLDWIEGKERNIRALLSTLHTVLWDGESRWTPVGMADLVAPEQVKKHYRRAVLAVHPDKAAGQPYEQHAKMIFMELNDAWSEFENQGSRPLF
AURKA (human), sequence (O14965 whole entry, looked up): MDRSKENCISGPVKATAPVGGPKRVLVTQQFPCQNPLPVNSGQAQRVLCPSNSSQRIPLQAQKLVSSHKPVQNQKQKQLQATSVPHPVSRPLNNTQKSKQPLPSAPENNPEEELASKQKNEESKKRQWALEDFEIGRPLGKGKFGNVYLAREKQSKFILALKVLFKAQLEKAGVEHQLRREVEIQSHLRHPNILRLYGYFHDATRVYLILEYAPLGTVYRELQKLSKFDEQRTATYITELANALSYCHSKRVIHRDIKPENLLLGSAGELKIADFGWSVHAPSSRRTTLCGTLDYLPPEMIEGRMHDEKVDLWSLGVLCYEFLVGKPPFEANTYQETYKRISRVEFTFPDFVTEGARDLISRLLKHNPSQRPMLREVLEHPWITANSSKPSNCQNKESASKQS
MERTK (human), sequence (Q12866 whole entry, looked up): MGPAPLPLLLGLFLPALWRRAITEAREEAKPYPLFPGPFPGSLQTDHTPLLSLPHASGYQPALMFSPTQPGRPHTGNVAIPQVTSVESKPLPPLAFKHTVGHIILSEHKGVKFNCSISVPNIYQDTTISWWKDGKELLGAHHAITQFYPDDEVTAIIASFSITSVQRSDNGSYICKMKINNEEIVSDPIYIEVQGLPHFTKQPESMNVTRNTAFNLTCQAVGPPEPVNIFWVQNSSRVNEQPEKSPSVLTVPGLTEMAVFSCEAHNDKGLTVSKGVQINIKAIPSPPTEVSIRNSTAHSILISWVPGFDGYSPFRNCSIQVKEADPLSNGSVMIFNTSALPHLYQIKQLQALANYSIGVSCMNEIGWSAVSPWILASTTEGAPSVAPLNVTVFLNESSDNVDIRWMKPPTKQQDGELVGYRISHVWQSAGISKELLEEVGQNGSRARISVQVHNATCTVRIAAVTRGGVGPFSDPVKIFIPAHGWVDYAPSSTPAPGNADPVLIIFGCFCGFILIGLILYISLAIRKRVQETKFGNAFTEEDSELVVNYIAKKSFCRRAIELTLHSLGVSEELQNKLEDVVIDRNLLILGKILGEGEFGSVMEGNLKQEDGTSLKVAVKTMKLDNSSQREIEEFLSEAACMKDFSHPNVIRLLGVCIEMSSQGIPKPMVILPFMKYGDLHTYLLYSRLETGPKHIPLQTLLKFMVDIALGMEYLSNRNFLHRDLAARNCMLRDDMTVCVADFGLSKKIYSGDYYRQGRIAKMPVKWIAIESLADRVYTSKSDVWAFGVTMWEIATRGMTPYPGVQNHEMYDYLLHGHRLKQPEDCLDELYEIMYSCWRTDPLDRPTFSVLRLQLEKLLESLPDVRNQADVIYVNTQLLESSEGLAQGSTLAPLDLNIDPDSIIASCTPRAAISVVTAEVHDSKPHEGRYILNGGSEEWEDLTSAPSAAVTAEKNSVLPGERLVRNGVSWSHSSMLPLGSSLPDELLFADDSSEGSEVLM
YES1 (human), sequence (P07947 whole entry, looked up): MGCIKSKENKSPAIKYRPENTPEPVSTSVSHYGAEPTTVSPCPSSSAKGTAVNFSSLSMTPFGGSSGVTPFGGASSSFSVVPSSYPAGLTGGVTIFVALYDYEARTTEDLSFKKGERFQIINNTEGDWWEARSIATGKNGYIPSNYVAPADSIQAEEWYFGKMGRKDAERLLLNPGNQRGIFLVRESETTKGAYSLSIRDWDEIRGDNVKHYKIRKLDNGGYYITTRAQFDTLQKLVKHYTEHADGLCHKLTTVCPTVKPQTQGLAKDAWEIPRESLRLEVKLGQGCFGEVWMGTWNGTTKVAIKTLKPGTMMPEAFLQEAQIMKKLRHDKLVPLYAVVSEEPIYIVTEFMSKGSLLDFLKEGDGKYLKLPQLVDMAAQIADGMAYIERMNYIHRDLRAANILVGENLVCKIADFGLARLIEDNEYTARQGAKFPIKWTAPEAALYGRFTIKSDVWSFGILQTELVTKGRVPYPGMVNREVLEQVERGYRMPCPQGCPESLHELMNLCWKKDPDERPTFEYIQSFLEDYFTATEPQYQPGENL
SRC (human), sequence (P12931 whole entry, looked up): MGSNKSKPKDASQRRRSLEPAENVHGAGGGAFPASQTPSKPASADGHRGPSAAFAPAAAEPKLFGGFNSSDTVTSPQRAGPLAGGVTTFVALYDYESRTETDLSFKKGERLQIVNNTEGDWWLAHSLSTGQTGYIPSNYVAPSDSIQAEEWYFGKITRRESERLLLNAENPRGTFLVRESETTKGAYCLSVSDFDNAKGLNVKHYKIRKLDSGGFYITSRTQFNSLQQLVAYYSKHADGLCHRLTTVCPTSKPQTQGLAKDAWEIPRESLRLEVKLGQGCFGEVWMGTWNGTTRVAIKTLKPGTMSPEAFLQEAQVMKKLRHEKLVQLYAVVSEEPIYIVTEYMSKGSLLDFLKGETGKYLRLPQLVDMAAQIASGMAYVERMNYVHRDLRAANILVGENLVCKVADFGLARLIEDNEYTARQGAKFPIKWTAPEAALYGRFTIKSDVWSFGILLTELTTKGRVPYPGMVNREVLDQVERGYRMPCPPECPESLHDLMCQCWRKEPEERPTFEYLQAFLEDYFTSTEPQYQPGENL

SMILES	kinase still bound, per cent of control (RPS6KA4 KD2 (human)) [%]	kinase still bound, per cent of control (SIK1 (human)) [%]	kinase still bound, per cent of control (MYLK2 (human)) [%]	kinase still bound, per cent of control (RPS6KA1 KD2 (human)) [%]	kinase still bound, per cent of control (GAK (human)) [%]	kinase still bound, per cent of control (CSF1R (human)) [%]	kinase still bound, per cent of control (SRC (human)) [%]	kinase still bound, per cent of control (MAPKAPK2 (human)) [%]	kinase still bound, per cent of control (KIT (human)) [%]	kinase still bound, per cent of control (MAP2K1 (human)) [%]	kinase still bound, per cent of control (STK24 (human)) [%]	kinase still bound, per cent of control (YES1 (human)) [%]	kinase still bound, per cent of control (PAK1 (human)) [%]	kinase still bound, per cent of control (EIF2AK2 (human)) [%]	kinase still bound, per cent of control (CSNK2A2 (human)) [%]	kinase still bound, per cent of control (CaMK1 (human)) [%]	kinase still bound, per cent of control (MERTK (human)) [%]	kinase still bound, per cent of control (GSK3B (human)) [%]	kinase still bound, per cent of control (MAP3K10 (human)) [%]	kinase still bound, per cent of control (STK17A (human)) [%]	other results
CCN(CC)CCCCNc1ncc2cc(-c3cc(OC)cc(OC)c3)c(NC(=O)NC(C)(C)C)nc2n1	100	100	100	100	100	6.6	100	100	100	100	7	100	100	24	100	100	100	100	100	100	kinase still bound, per cent of control (MAP4K3 (human)): 100%; kinase still bound, per cent of control (AURKA (human)): 100%; kinase still bound, per cent of control (STK17B (human)): 100%; kinase still bound, per cent of control [1]: 100%; kinase still bound, per cent of control (ANKK1 (human)): 100%; kinase still bound, per cent of control (SYK (human)): 100%
Cc1n[nH]c2ccc(-c3cncc(OC[C@@H](N)Cc4c[nH]c5ccccc45)c3)cc12	9.9	100	100	100	8.1	100	100	100	100	100	100	100	6.2	100	13	33	33	1	100	5.4	kinase still bound, per cent of control (ULK3 (human)): 100%; kinase still bound, per cent of control (PIK3CG (human)): 100%; kinase still bound, per cent of control (FGFR4 (human)): 100%; kinase still bound, per cent of control (CHEK2 (human)): 100%; kinase still bound, per cent of control (MAP4K3 (human)): 9.5%; kinase still bound, per cent of control (AURKA (human)): 100%; kinase still bound, per cent of control (STK17B (human)): 20%; kinase still bound, per cent of control [1]: 100%; kinase still bound, per cent of control (ANKK1 (human)): 100%; kinase still bound, per cent of control (SYK (human)): 100%
CNC(=O)c1ccc(Nc2cc(Nc3ccccc3S(=O)(=O)C(C)C)c3cc[nH]c3n2)nc1	100	11	100	100	2.5	30	0.25	100	20	3	100	1.6	100	100	18	100	0.25	100	18	100	kinase still bound, per cent of control (ULK3 (human)): 3.7%; kinase still bound, per cent of control (PIK3CG (human)): 100%; kinase still bound, per cent of control (FGFR4 (human)): 100%; kinase still bound, per cent of control (CHEK2 (human)): 100%; kinase still bound, per cent of control (MAP4K3 (human)): 1%; kinase still bound, per cent of control (AURKA (human)): 2.7%; kinase still bound, per cent of control (STK17B (human)): 33%; kinase still bound, per cent of control [1]: 12%; kinase still bound, per cent of control (ANKK1 (human)): 100%; kinase still bound, per cent of control (SYK (human)): 2.6%
C=CC(=O)Nc1ccc(CN(C(=O)Nc2c(Cl)c(OC)cc(OC)c2Cl)c2cc(Nc3ccc(N4CCN(C)CC4)cc3)ncn2)cc1	100	31	100	100	100	0	6.6	100	0.3	100	18	5.2	100	100	100	100	100	100	13	100	kinase still bound, per cent of control (ULK3 (human)): 100%; kinase still bound, per cent of control (PIK3CG (human)): 100%; kinase still bound, per cent of control (FGFR4 (human)): 0.1%; kinase still bound, per cent of control (CHEK2 (human)): 100%; kinase still bound, per cent of control (MAP4K3 (human)): 7.4%; kinase still bound, per cent of control (AURKA (human)): 100%; kinase still bound, per cent of control (STK17B (human)): 100%; kinase still bound, per cent of control [1]: 13%; kinase still bound, per cent of control (ANKK1 (human)): 100%; kinase still bound, per cent of control (SYK (human)): 100%
